Read-outs that look alike come from different tables or passages of the source.
What was measured:
CB1 receptor = molecular target: T1, CB1 receptor (Rattus norvegicus, UniProt P20272); assay: CB1 receptor binding, [3H] CP-55,940 displacement, rat forebrain membranes; details: rat forebrain membranes, 0.8 nM [3H] CP-55,940, read-out: Kl CB1
T1 construct: membranes were prepared from rat forebrain membranes; from tissue; host or cells: rat forebrain
Description: (§1) The materials were tested for CB2 receptor binding affinity and for CB1 receptor affinity (to determine selectivity for the CB2 receptor). As used herein, “binding affinity” is represented by the IC50 value which is the concentration of an analog required to occupy the 50% of the total number (Bmax) of the receptors. The lower the IC50 value the higher the binding affinity.
For the CB1 receptor binding studies, membranes were prepared from rat forebrain membranes according to the procedure of P. R. Dodd et al, A Rapid Method for Preparing Synaptosomes: Comparison with Alternative Procedures, Brain Res., 107–118 (1981). The binding of the novel analogues to the CB1 cannabinoid receptor was assessed as described in W. A. Devane et al, Determination and Characterization of a Cannabinoid Receptor in a Rat Brain, Mol. Pharmacol., 34, 605–613 (1988) and A. Charalambous et al, 5′-azido Δ^8 THC: A Novel Photoaffinity Label for the Cannabinoid Receptor, J. Med. Chem., 35, 3076–3079 (1992) with the following changes. The above articles are incorporated by reference herein.
Membranes, previously frozen at −80° C., were thawed on ice. To the stirred suspension was added three volumes of TME (25 mM Tris-HCl buffer, 5 mM MgCl2 and 1 mM EDTA) at a pH 7.4. The suspension was incubated at 4° C. for 30 min. At the end of the incubation, the membranes were pelleted and washed three times with TME.
(§2) The treated membranes were subsequently used in the binding assay described below. Approximately 30 μg of membranes were incubated in silanized 96-well microtiter plate with TME containing 0.1% essentially fatty acid-free bovine serum albumin (BSA), 0.8 nM [^3H] CP-55,940, and various concentrations of test materials at […] for 1 hour. The samples were filtered using Packard Filtermate 196 and Whatman GF/C filterplates and washed with wash buffer (TME) containing 0.5% BSA. Radioactivity was detected using MicroScint 20 scintillation cocktail added directly to the dried filterplates, and the filterplates were counted using a Packard Instruments Top-Count. Nonspecific binding was assessed using 100 nM CP-55,940. Data collected from three independent experiments performed with duplicate determinations was normalized between 100% and 0% specific binding for [^3H] CP-55,940, determined using buffer and 100 nM CP-55,940. The normalized data was analyzed using a 4-parameter nonlinear logistic equation to yield IC50 values. Data from at least two independent experiments performed in duplicate was used to calculate IC50 values which were converted to Ki values using the assumptions of Cheng et al, Relationship Between the Inhibition Constant (Ki) and the concentration of Inhibitor which causes 50% Inhibition (IC50) of an Enzymatic Reaction, Biochem. Pharmacol., 22, 3099–3102, (1973), which is incorporated by reference herein.

CB2 receptor = molecular target: T2, CB2 receptor (Mus musculus, UniProt P47936); assay: CB2 receptor binding, [3H] CP-55,940 displacement, mouse spleen membranes; details: mouse spleen membranes, [3H] CP-55,940, read-out: Kl CB2 (converted)
T2 construct: membranes were prepared from frozen mouse spleen; from tissue; host or cells: mouse spleen
T2 sequence (P47936 whole entry): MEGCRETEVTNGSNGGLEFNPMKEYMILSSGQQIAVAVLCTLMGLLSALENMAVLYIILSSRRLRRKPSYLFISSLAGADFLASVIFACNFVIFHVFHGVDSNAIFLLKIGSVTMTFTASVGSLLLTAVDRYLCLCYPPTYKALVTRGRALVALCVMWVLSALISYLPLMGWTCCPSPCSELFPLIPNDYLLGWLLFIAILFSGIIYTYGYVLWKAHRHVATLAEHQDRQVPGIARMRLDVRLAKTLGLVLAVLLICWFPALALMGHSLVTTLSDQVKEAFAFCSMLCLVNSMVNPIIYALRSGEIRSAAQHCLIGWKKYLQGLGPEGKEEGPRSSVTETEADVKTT
Description: as §1, §2
For the CB2 receptor binding studies, membranes were prepared from frozen mouse spleen essentially according to the procedure of P. R. Dodd et al, A Rapid Method for Preparing Synaptosomes: Comparison with Alternative Procedures, Brain Res., 226, 107–118 (1981) which is incorporated by reference herein. Silanized centrifuge tubes were used throughout to minimize receptor loss due to adsorption. The CB2 binding assay was conducted in the same manner as for the CB1 binding assay. The binding affinities (Ki) were also expressed in nanomoles (nM).

T1 sequence (P20272 whole entry): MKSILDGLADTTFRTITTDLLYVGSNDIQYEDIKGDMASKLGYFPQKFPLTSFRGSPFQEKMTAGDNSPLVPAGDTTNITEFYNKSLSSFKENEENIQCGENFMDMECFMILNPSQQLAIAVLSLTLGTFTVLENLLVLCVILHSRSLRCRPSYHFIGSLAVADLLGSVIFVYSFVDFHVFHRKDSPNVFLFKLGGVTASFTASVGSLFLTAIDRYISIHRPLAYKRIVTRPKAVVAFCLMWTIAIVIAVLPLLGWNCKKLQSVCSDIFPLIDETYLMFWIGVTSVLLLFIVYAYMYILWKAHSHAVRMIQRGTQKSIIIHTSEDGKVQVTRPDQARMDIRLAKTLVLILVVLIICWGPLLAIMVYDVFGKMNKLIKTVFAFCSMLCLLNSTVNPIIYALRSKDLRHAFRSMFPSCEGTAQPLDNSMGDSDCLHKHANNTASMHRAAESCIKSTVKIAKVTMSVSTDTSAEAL

Structure (SMILES) | Ki (CB1 receptor; TABLE 2) | Ki (CB2 receptor; TABLE 2) | Ki (CB1 receptor; TABLE 1, racemic samples) | Ki (CB2 receptor; TABLE 1, racemic samples)
Cc1c(C(=O)c2ccccc2I)c2ccccc2n1CCCCCO [AM690] | 4850 nM | 1970 nM |  | 
CC(=O)OCCCCCn1cc(C(=O)c2ccccc2I)c2ccccc21 [AM692] | 2660 nM | 1520 nM |  | 
O=C(c1ccccc1I)c1cn(CCCCCO)c2ccccc12 [AM693] | 835 nM | 526 nM |  | 
O=C(c1cccc2ccccc12)c1cn(CCCCO)c2ccccc12 [AM1283] | 117 nM | 196 nM |  | 
CC(=O)OCCCCCn1cc(C(=O)c2cccc3ccccc23)c2ccc(N)cc21 [AM1236] | 1130 nM | 559 nM |  | 
N#CCCCCn1cc(C(=O)c2cccc3ccccc23)c2ccc([N+](=O)[O-])cc21 [AM2231] | 4.9 nM | 23.9 nM |  | 
[N-]=[N+]=Nc1ccc(C(=O)c2cn(CCCCI)c3ccccc23)c2ccccc12 [AM2213] | 3 nM | 30 nM |  | 
CN1CCCCC1Cn1cc(C(=O)c2cccc3ccccc23)c2ccccc21 (centres unmarked) [AM1296] |  |  | 7.57 nM | 3.88 nM
CCCCCn1cc(C(=O)c2cc([N+](=O)[O-])ccc2I)c2ccccc21 [AM1202] | 98.9 nM | 22.9 nM |  | 
CN1CCCCC1Cn1cc(C(=O)c2cc(N=C=S)ccc2I)c2ccc(N=C=S)cc21 (racemic) [AM2223] |  |  | 64.8 nM | 29.9 nM
Cc1c(C(=O)c2ccccc2I)c2ccccc2n1CCCCCF [AM2225] | 5.97 nM | 3.8 nM |  | 
O=C(c1cccc2ccccc12)c1cn(CCCCN=C=S)c2ccccc12 [AM1291] | 2960 nM | 1800 nM |  | 
CN1CCCCC1Cn1cc(C(=O)c2ccc(N=C=S)c3ccccc23)c2ccc(N=C=S)cc21 (racemic) [AM2215] |  |  | 235 nM | 99.6 nM
O=C(c1ccccc1I)c1cn(CCCCCI)c2ccccc12 [AM698] | 136 nM | 315 nM |  | 
CCCCCCn1c(C)c(C(=O)c2ccccc2I)c2ccccc21 [AM682] | 332 nM | 693 nM |  | 
Cc1c(C(=O)c2ccccc2I)c2ccc(N=C=S)cc2n1CC1CCCCN1C (racemic) [AM1216] |  |  | 210 nM | 25.2 nM
Cc1c(C(=O)c2ccccc2I)c2ccc([N+](=O)[O-])cc2n1CC1CCCCN1C (racemic) [AM664] |  |  | 40 nM | 80 nM
CCCCCn1cc(C(=O)c2cc(N)ccc2I)c2ccccc21 [AM1203] | 63.6 nM | 88.9 nM |  | 
CCCCCn1cc(C(=O)c2cc(N=[N+]=[N-])ccc2I)c2ccccc21 [AM1205] | 117 nM | 196 nM |  | 
